Data reported in US11286268B1, “EIF4E-inhibiting compounds and methods” (EFFECTOR THERAPEUTICS, INC., priority 2019, dated 2022).
Like-named read-outs stand apart in the source and are kept apart here.

Target: recombinant eIF4E (Homo sapiens (Human), UniProt P06730)
Assay: Fluorescence polarization competition assay for eIF4E binding potency
Procedure, shortened: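 Competition of test compound against 20 nM EDA-m^7GDP-ATTO-550 for 75 nM recombinant eIF4E, pre-incubated 5 min, in 20 mM Tris pH 7.5, 100 mM NaCl, 1 mM DTT, 0.02% Tween-20, 1% DMSO. Equilibrated 30 min at room temperature, dark; fluorescence polarization read. IC50 from 8-point, 3-fold dilution series.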

[1] = fluorescence polarization competition, 75 nM recombinant eIF4E, 20 nM EDA-m7GDP-ATTO-550, IC50 class, read-out: elF4E FP
[2] = inhibition of eIF4E/EDA-m7GDP-ATTO-550 binding by 50%, Table 4B calculated values, read-out: IC50

Chain of recombinant eIF4E (P06730 whole entry): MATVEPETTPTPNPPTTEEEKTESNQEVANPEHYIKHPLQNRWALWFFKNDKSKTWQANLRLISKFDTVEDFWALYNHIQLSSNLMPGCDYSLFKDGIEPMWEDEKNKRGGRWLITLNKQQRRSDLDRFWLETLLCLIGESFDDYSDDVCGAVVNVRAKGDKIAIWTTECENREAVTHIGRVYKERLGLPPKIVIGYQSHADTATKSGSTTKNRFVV

Cc1nc2c(C3CCC(F)(F)CC3)ncc(C#N)c2c(=O)n1CCOc1ccc(Cl)cc1-c1ccnc2c(C(=O)O)csc12 [compound 284]
IC50 [1]: < 50 nM | IC50 [2]: 19.6 nM

Cc1nc2cc(C(F)(F)F)cc(C#N)c2c(=O)n1CCOc1ccncc1-c1ccnc2c(C(=O)O)csc12 [compound 285]
IC50 [1]: 50 to 1000 nM | IC50 [2]: 72.5 nM

Cc1nc2cc(C#N)cc(C#N)c2c(=O)n1C/C=C/c1ccc(Cl)cc1-c1ccnc2c(C(=O)O)csc12 [compound 286]
IC50 [1]: 50 to 1000 nM | IC50 [2]: 183 nM

Cc1nc2cc(C(F)(F)F)cc(C#N)c2c(=O)n1CCOc1ccc(C#N)cc1-c1ccnc2c(C(=O)O)csc12 [compound 287]
IC50 [1]: < 50 nM | IC50 [2]: 47.8 nM

Cc1nc2c(F)cc(S(=O)(=O)N(C)C)c(C#N)c2c(=O)n1CCOc1ccc(Cl)cc1-c1ccnc2c(C(=O)O)csc12 [compound 288]
IC50 [1]: < 50 nM | IC50 [2]: 46.1 nM

Cc1nc2cc(C(F)(F)F)cc(C#N)c2c(=O)n1CCOc1cc(F)c(C#N)cc1-c1ccnc2c(C(=O)O)csc12 [compound 289]
IC50 [1]: < 50 nM | IC50 [2]: 19.1 nM

Cc1nc2cc(Cl)c(Cl)c(C#N)c2c(=O)n1CCOc1ccc(C#N)cc1-c1ccnc2c(C(=O)O)csc12 [compound 290]
IC50 [1]: < 50 nM | IC50 [2]: 42.7 nM

Cc1nc2cc(C(F)(F)F)cc(C#N)c2c(=O)n1CCOc1cnc(C#N)cc1-c1ccnc2c(C(=O)O)csc12 [compound 291]
IC50 [1]: 50 to 1000 nM | IC50 [2]: 99.5 nM

Cc1nc2cc(C(F)(F)F)cc(C#N)c2c(=O)n1CCOc1ccc(C#N)nc1-c1ccnc2c(C(=O)O)csc12 [compound 292]
IC50 [1]: 50 to 1000 nM | IC50 [2]: 203 nM

Cc1nc2c(F)cc(S(C)(=O)=O)c(C#N)c2c(=O)n1CCOc1ccc(Cl)cc1-c1ccnc2c(C(=O)O)csc12 [compound 293]
IC50 [1]: 50 to 1000 nM | IC50 [2]: 63.9 nM

Cc1nc2c(F)c(C(F)(F)F)cc(C#N)c2c(=O)n1CCOc1ccc(Cl)cc1-c1ccnc2c(C(=O)O)csc12 [compound 294]
IC50 [1]: < 50 nM | IC50 [2]: 22.9 nM

Cc1nc2cc(C(F)(F)F)cc(C#N)c2c(=O)n1CCOc1ccc(Cl)cc1-c1ccnc2c(C(F)(F)C(=O)O)csc12 [compound 295]
IC50 [1]: 50 to 1000 nM | IC50 [2]: 167 nM

Cc1nc2ccc(S(=O)(=O)c3ccccn3)c(C#N)c2c(=O)n1CCOc1ccc(Cl)cc1-c1ccnc2c(C(=O)O)csc12 [compound 297]
IC50 [1]: < 50 nM | IC50 [2]: 36.3 nM

Cc1nc2c(F)c(F)c(C(F)F)c(C#N)c2c(=O)n1CCOc1ccc(Cl)cc1-c1ccnc2c(C(=O)O)csc12 [compound 298]
IC50 [1]: 50 to 1000 nM | IC50 [2]: 101 nM

Cc1nc2cc(C(F)(F)F)cc(C#N)c2c(=O)n1CCOc1ccc(Cl)cc1-c1csc2c(C(=O)O)ccnc12 [compound 299]
IC50 [1]: < 50 nM | IC50 [2]: 22.3 nM

Cc1nc2cc(C(F)(F)F)cc(C#N)c2c(=O)n1CCOc1ccc(Cl)cc1-c1coc2c(C(=O)O)cccc12 [compound 300]
IC50 [1]: < 50 nM | IC50 [2]: 24.3 nM

Cc1nc2cc(C(F)(F)F)cc(C#N)c2c(=O)n1CCOc1ccc(Cl)cc1-c1csc2c(C(=O)O)cccc12 [compound 301]
IC50 [1]: 50 to 1000 nM | IC50 [2]: 57.6 nM

Cc1nc2c(F)cc(C(F)F)c(C#N)c2c(=O)n1CCOc1ccc(Cl)cc1-c1ccnc2c(-c3nnn[nH]3)csc12 [compound 302]
IC50 [1]: 50 to 1000 nM | IC50 [2]: 77.6 nM

CONC(=O)c1csc2c(-c3cc(Cl)ccc3OCCn3c(C)nc4c(F)cc(C(F)F)c(C#N)c4c3=O)ccnc12 [compound 303]
IC50 [1]: 50 to 1000 nM

Cc1nc2cc(C(F)(F)F)cc(Br)c2c(=O)n1CCOc1ccc(Cl)cc1-c1cccc(C(=O)O)c1 [compound 304]
IC50 [1]: > 1000 nM | IC50 [2]: 1600 nM

Cc1nc2cc(C(F)(F)F)cc(Br)c2c(=O)n1CCOc1ccc(Cl)cc1-c1ccnc2c(C(=O)O)csc12 [compound 305]
IC50 [1]: 50 to 1000 nM | IC50 [2]: 431 nM

Cc1nc2cc(F)c(F)c(C#N)c2c(=O)n1CCOc1ccc(Cl)cc1-c1ccnc2c(-c3nnn[nH]3)csc12 [compound 306]
IC50 [1]: 50 to 1000 nM | IC50 [2]: 91.2 nM
